Measured values: a melting point compilation (Tetko et al.; mined from patent text by program, amines drawn as free bases though some values may be those of a salt)

SMILES	melting point
Cn1c(COc2ccc(CC3SC(=O)NC3=O)cc2)nc2ccc(Oc3ccc(NC(=O)c4ccc5ccccc5c4)cc3)cc21 (centres undefined)	221 to 223 °C
CCCCNC(=O)N(C)c1cccc(-c2ccc(C=C(OC)C(=O)O)cc2)c1	146 °C
Cc1ccc(-c2cc(CO)c3[nH]c(=O)ccc3c2)c(C)n1	218 to 221 °C
Cc1nc2c(C)cccn2c1C1=NNC(=O)CO1	310 to 313 °C
COc1ccc(O)c(C(=O)c2ccc(O)cc2)c1	144 to 148 °C
Clc1cccc(N2CCN(CCCCOc3ccc4scnc4c3)CC2)c1Cl	93 to 94.5 °C
CC(C)Cn1c(CNC(=O)OC(C)(C)C)c(-c2ccccc2)c2cc(OC(C)(C)C(N)=O)ccc2c1=O	219 to 220 °C
CN(C)Cc1ccc(CSCCNC(=O)NCCN(C)CCN(Cc2ccc(F)cc2)c2ccccn2)o1	90 °C
CC(C)(C)OC(=O)N[C@@H](Cc1ccc(Cc2ccccc2)cc1)C(=O)O	103 to 107 °C
O=C(Nc1nnc(CC2CC2)o1)C1c2ccccc2Oc2ccccc21	140 to 141 °C
Cc1c(-c2cc(Nc3cc4n(n3)CCN(C)C4)c(=O)n(COP(=O)(OCCC#N)OCCC#N)n2)cccc1N1Cc2cc(C(C)(C)C)sc2C1=O	208 to 210 °C
N#Cc1ccc(C(=O)c2ccccc2)s1	85 to 89 °C
CC(=O)Nc1cc(CN(C)C)c2ncc(C#N)c(Nc3cccc(Br)c3)c2c1	162 to 167 °C
CCCCc1nc2cc[nH]c(=O)c2n1Cc1ccc([N+](=O)[O-])cc1	193 to 194 °C
COC(=O)CC1SC2=Nc3ccccc3CN2C1=O (centres undefined)	143 to 144 °C
CCNC(=O)n1oc2ccccc2c1=O	112 to 113 °C
COc1cccc(C)c1N(C(C)=O)C(C)=O	116 to 119 °C
CS(=O)(=O)NC(=O)Cc1ccc2c(c1)Nc1nccnc1S2	236 to 238 °C
CS(=O)(=O)N1CC(CN2CCCC2)Cc2ccccc21 (centres undefined)	72 to 73 °C
COc1cc(-c2csc(CN(C)C(=O)OC(C)(C)C)n2)cc(OC)c1OC(C)=O	135 to 137 °C
Nc1nc(NS(=O)(=O)c2ccccc2[N+](=O)[O-])n[nH]1	255 to 256 °C
CC(=NOc1ccc(F)cc1)c1cc(Cl)ccc1NS(=O)(=O)C(F)(F)F	71 to 73 °C
O=C1CCC(c2ccc(-n3ccc(=O)cc3)cc2)=NN1	270 to 272 °C
Cc1cc(Oc2c([N+](=O)[O-])cc([N+](=O)[O-])cc2C(F)(F)F)n[nH]1	145 to 147 °C
CC1(C)Cc2ccccc2C1c1cncnc1SCc1cccc(F)c1 (centres undefined)	60 to 62 °C

SMILES	melting point
O=C(O)c1sc(-c2ccc(Cl)cc2)nc1C(F)(F)F	235 to 250 °C
CCC(C)Nc1ccc([N+](=O)[O-])cc1[N+](=O)[O-] (centres undefined)	53 to 55 °C
O=C(Nc1cnc2c(c1)nc1n2CCCC1)c1cc2cc(C(F)(F)F)ccc2n1Cc1cccc(F)c1	262 to 263 °C
CN(Cc1ccc(NC(=O)C2=Cc3cc(-c4ccc(OCc5ccc(Cl)s5)cc4)ccc3S(=O)(=O)CC2)cc1)C1CCOCC1	207 to 210 °C
CC(C)(C)c1noc(-c2cccc(S(C)(=O)=O)n2)n1	165 to 167 °C
COCCNc1cncc(C(N)=O)c1	79 to 80 °C
Cn1ccnc1-c1ccc(-c2cnc([C@H](Cc3ccccn3)N(C=O)c3cc4ccccc4[nH]3)n2C)cc1	218 to 222 °C
CCOC(=O)c1cn2c(n1)CNc1ccccc1-2	206 to 208 °C
O=C(O)COc1ccc2c(-c3cccc(F)c3F)noc2c1Cl	183 to 187 °C
COc1ccc(/C=C/S(=O)(=O)Nc2ccc(S(N)(=O)=O)cc2)cc1	181 to 183 °C
CN(C)S(=O)(=O)c1ccc(O)c(O)c1	142 °C
CN1CCN(C(=O)Cn2nnnc2S)CC1	> 250 °C
CC(=O)OCCN1CCC(CNC(=O)[C@@H]2CCCN2S(=O)(=O)c2ccc(Cl)c(COc3cccc4c(-n5ccnc5)cc(C)nc34)c2Cl)CC1	93 °C
N=C(NCl)c1ccsc1	96 to 98 °C
CC(C)Cn1c(=O)n(C)c(=O)c2c(Sc3ccccn3)c(Cc3cccc4ccccc34)sc21	148 to 149 °C
CCC(COC)(OC)c1cncc(O)c1 (centres undefined)	87 to 88 °C
O=C(Cc1c(-c2cccnc2)c2cc(CN3CCN(c4ccccc4)CC3)c(Cl)cc2oc1=O)Nc1ccc(F)cc1C(F)(F)F	202 to 205 °C
O=C(NO)c1ccc(CNC(=O)c2[nH]c(-c3ccoc3)cc2-c2ccc(O)cc2)cc1	159 to 160 °C
CNC(=O)N(C)c1nnc(SCc2ccccc2)s1	139 to 142 °C
CCOC(=O)c1cc(C(=O)NC)nc(C(=O)NC)c1N	185 to 186 °C
CCOC(CC)c1ccc(Cl)c2nc3n(c12)CCCN3c1cnc(N(C)C)cc1C (centres undefined)	179 to 180 °C
CC(C)c1ccnc(C(C)C)c1N	35 to 39 °C
CCn1nc(C)cc1C(=O)OC	130 to 133 °C
N#CC1=C(C2CCCCC2=O)Nc2n[nH]cc2C1c1cccc(C#N)c1Br (centres undefined)	273 °C
CS(=O)(=O)OCc1cc(-c2ccc3c(c2)CCO3)nn(Cc2ccccc2Cl)c1=O	118 to 119 °C

SMILES	melting point
O=C(O)CCc1cnoc1-c1ccc(F)c(F)c1	102 to 103 °C
CCOC(=O)Cc1cc2ccc(O)cc2oc1=O	168 to 170 °C
O=C(Nc1ccccc1I)c1ccccc1	147 to 148 °C
CCOC(=O)N1CCc2nc3c(Cl)cccc3c(C)c2CC1	169 °C
Cc1cccc2c(Cl)nc(Cl)nc12	180 to 230 °C
CC(C)[C@H](NC(=O)OCc1ccccc1)C(=O)N[C@@H](C(C)C)[C@@H](O)c1c(-c2ccccc2)c1=O	63 to 71 °C
Cc1c(Cl)c(=O)[nH][nH]c1=O	305 to 310 °C
COC(=O)Nc1ccc(C2=NNC(=O)CC2C)cc1 (centres undefined)	228 to 229 °C
Cc1ccc(N2CCN(CCCN3c4cccc5cccc(c45)S3(=O)=O)CC2)cc1	136 °C
CCOC(=O)/C=C/c1cn(-c2ccccc2)nc1OCc1ccc(OCc2nc(-c3ccco3)oc2C)c(OC)c1	177 to 178 °C
CC1CC2C3CCC4=CC(=O)C=CC4(C)C3=CCC2(C)C1C(=O)COS(=O)(=O)c1ccc(Br)cc1 (centres undefined)	124 to 129 °C
O=C(C=CCN1CCC(O)(c2ccc(Cl)cc2)CC1)c1ccc(F)cc1	97 to 97.5 °C
O=C(Nc1nc2cc(O)ccc2[nH]1)NC1CC1	320 °C
Cc1c(-c2ccc3c(c2)C(N2Cc4ccccc4C2=O)C(O)C(C)(C)O3)c(=O)c1=O (centres undefined)	> 250 °C
CN1CC[C@@H](c2c(O)cc(O)c3c(=O)cc(-c4cccc(F)c4Br)oc23)[C@@H]1CO	237 to 239 °C
Nc1ccc(OCCCl)cc1	91 to 92 °C
COC[C@H](C1CC1)n1cc(Cl)nc(Cl)c1=O	110 to 111 °C
OC[C@H]1CCCN1c1cc(N2CCc3ccccc3C2)c2ccccc2n1	74 to 80 °C
COC(=O)c1nsc2nc3ccccc3n12	208 to 209 °C
CC(=O)NS(=O)(=O)c1ccc(C2=C(c3cccc(F)c3)C(=O)C(C)(C)O2)cc1	178 to 179 °C
COc1cc(C(=O)c2cccnc2)ccc1O	150 to 151 °C
Cc1nc2c(NC(=O)C(C)(C)C)c(C(=O)C=Cc3ccccc3)ccn2c1C	108 to 110 °C
COc1ccc(N2CCN(c3c(C)c(C)c4c(c3C)C(c3ccc(F)cc3)C(C)(C)O4)CC2)cc1 (centres undefined)	139 to 141 °C
O=C1Nc2ccc3cn[nH]c3c2C1=O	> 300 °C
CCN(CC)c1ccc(C(=O)c2ccccc2C(=O)O)cc1	184 °C

SMILES	melting point
Clc1ccc(Nc2nc3ccccc3o2)c(Cl)c1	98 to 99 °C
Cc1c(I)nc2n1CCc1ccccc1C2OC1CCN(C)CC1 (centres undefined)	59 °C
O=C1CCC(Nc2nccc(-n3nnc4ccccc43)n2)CC1	205 to 206 °C
Nc1nonc1NCCCOc1cccc(CN2CCCCC2)c1	87 to 88 °C
COC(=O)c1cccc2nc(N3CCCCC3)n(Cc3ccc(-c4ccccc4C#N)cc3)c12	119 to 121 °C
CCCOc1ccccc1C1=NC(=O)C2=NC(c3ccccc3)=NC2=N1	259 to 260 °C
CC(C)CCCC(C)Cc1cncn1Cc1ccccc1 (centres undefined)	61 to 62 °C
COc1cc(C)ccc1C(=O)O	103 to 104 °C
CSc1ccc(Oc2ccc([N+](=O)[O-])cc2C#N)cc1	124 to 126 °C
CCCn1c(=O)c2nc(-c3ccc(/C=C/C(=O)OCC)cc3)[nH]c2n(CCC)c1=O	> 300 °C
C=CCOc1cc(C(=O)CCCCCCCCCCCCC)c(O)c(C)c1C	65 to 66 °C
O=C(Oc1ccccc1)c1n[nH]c2c(=O)[nH]c3cc(Cl)ccc3c(=O)c12	265 °C
O=C(Cc1ccccc1)NC1CN(C(C(=O)O)c2ccc(O)cc2)C1=O (centres undefined)	134 to 141 °C
O=c1c(-c2ccccc2)c(-c2ccccc2)oc2cc(OCC(O)CNC3CC3)ccc12 (centres undefined)	135 to 137 °C
CCCCCCCCCCCCn1nnc(C(C(=O)Nc2c(C(C)C)cccc2C(C)C)N2CCSCC2)n1 (centres undefined)	97 to 98 °C
COc1c(C2CCN(CCCCNC(=O)c3cc(-c4ccc(C#N)cc4)nn3CCO)CC2)ccc2c1CCCC2	152 °C
COc1cc(OC)c(-c2cccn2C)cc1C=CC(=O)c1ccc(S(=O)(=O)Nc2cc(C)on2)cc1	113 to 115 °C
CC(=O)c1ccc(OCc2ccsc2)cc1OC(CCc1ccccc1C#N)C(=O)O (centres undefined)	132 to 134 °C
C=CCN1CCC23c4c5ccc(O)c4OC2C(=NO)CCC3(O)C1C5 (centres undefined)	119 °C
Cc1[nH]c(C(=O)N2CCC(C(=O)NCC3CCCCC3)CC2)c(C)c1-c1nc2ccc(C(=O)c3ccccc3)cc2[nH]1	274 to 276 °C
COc1cc(C(=O)N2CCN(C(=O)OC(C)(C)C)C(C(=O)N(C)C)C2)cc(OC)c1OC (centres undefined)	146 to 147 °C
CN1CCN(c2cccc3c2C[C@H](NC(=O)c2ccc(C(F)(F)F)cc2C(F)(F)F)CO3)CC1	202 to 203 °C
O=C(CNC(=O)OCc1ccccc1)OCc1ccccc1	72 °C
O=C(Nc1ccc(OCCN2CCOCC2)c2ccccc12)c1cccc(-n2cccc2)c1	142 to 143 °C
